Reference: ChEMBL document CHEMBL1201862, “PubChem BioAssay data set” (2004)
Active and inactive are the calls of the source. Rule as the data show it, for most assays here: actives have a measured EC50 and inactives only a lower limit.

What was measured:
[1] = molecular target: FAD-linked sulfhydryl oxidase ALR (Homo sapiens, UniProt P55789); assay: inhibitors of human ALR sulfhydryl oxidase, dose response, biochemical, H2O2 detection, luminescence, cherry-pick (AID 493248)
cells [2] = type: functional, cell-based
cells [3] = type: functional, cell-based; remark: listed apart in the source
[4] = Luminescence Cell-Based Dose Confirmation HTS to Identify Inhibitors of Platelet Dense Granule Release. [Related pubchem assays: 1663 (Primary HTS), 1678 (Summary of Project)]; type: functional
[5] = molecular target: Luciferin 4-monooxygenase (Photinus pyralis, UniProt P08659); assay: firefly luciferase enzyme inhibitors, dose response, biochemical, luminescence (AID 1891)
[6] = molecular target: T1, Polyadenylate-binding protein 1 (Homo sapiens, UniProt P11940); assay: PABP1 MLLE–PAM2 interaction inhibitors, dose response, miRNA deadenylation inhibitor project, biochemical, fluorescence polarization, Cy5-PAM2 peptide, secondary (AID 602260); type: functional; details: read-out: IC50_Mean
[7] = molecular target: T1, Polyadenylate-binding protein 1; assay: PABP1 MLLE–PAM2 binding inhibitor potency, dose response, biochemical, fluorescence polarization, FITC-PAM2 peptide (AID 602259); type: functional; details: read-out: IC50_Mean
[8] = molecular target: T2, Heat shock factor protein 1 (Mus musculus, UniProt P38532); assay: inhibition of MG132-induced HSE-luciferase signal, confirmation, cell-based, NIH3T3, luminescence, dose retest (AID 2382); type: functional;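 also: NIH3T3 fibroblasts with HSF1-driven luciferase reporter stressed by proteasome inhibitor MG132; luminescence from HSF1-driven luciferase expression after 8 hours of MG132 stress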
T2 sequence (P38532 whole entry): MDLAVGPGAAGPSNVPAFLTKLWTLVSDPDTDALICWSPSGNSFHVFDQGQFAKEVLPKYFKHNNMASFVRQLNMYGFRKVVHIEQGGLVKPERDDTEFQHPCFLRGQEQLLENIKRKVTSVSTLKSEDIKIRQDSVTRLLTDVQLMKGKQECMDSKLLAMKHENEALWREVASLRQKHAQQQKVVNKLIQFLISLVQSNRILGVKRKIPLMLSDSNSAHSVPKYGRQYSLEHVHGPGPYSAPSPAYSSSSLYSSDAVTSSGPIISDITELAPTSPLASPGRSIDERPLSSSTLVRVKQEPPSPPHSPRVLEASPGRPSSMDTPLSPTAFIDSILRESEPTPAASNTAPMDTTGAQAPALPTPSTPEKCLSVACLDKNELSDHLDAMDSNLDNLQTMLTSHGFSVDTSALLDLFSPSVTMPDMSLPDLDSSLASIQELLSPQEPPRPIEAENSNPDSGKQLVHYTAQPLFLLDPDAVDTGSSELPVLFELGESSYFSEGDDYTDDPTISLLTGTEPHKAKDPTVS

INS1 = assay: beta cell apoptosis inhibitors, cytokine rescue, dose response, luminescence, retest (AID 449756); type: functional, cell-based; details: Rattus norvegicus;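 also: cell death triggered by IL-1 beta plus TNF-alpha plus IFN-gamma mixture; protective hits raise ATP signal compared with cytokine alone wells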
[9] = Luminescence Cell-Based Dose Retest to Confirm Inhibitors of Cancer Stem Cells. [Related pubchem assays (depositor defined):AID2717, AID2721]; type: functional; details: Homo sapiens
[10] = molecular target: T3, Ubiquitin-conjugating enzyme E2 N (Homo sapiens, UniProt P61088); type: functional;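 also: Dose-response confirmation in a TR-FRET assay detecting UBC13-driven polyubiquitin chain formation, inhibition measured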
T3 sequence (P61088 whole entry): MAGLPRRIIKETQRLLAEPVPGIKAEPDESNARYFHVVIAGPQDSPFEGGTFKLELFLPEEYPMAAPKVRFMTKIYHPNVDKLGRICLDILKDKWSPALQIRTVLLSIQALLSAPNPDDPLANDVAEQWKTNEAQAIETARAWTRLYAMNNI

[11] = inhibitors of intracellular T. cruzi replication, confirmation, NIH3T3 host cells, beta-gal luminescence (AID 2044); type: functional, cell-based;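 also: intracellular parasites grown in NIH/3T3 mouse fibroblasts as host cells; luminescent beta-galactosidase reporter signal from transgenic T. cruzi replicating inside host cells; inhibitors lower the luminescence signal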
[12] = cytotoxicity toward NIH3T3 fibroblasts, dose response, counter-screen, cell-based, ATP luminescence, mouse fibroblasts (AID 2010); type: functional;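 also: cells exposed to compound for about 90 hours before reading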
[13] = molecular target: T4, Calpain-2 catalytic subunit (Sus scrofa, UniProt P43367); assay: pig calpain II inhibitor potency, dose response, biochemical, fluorogenic peptide substrate (AID 1420); type: functional
T4 sequence (P43367 whole entry): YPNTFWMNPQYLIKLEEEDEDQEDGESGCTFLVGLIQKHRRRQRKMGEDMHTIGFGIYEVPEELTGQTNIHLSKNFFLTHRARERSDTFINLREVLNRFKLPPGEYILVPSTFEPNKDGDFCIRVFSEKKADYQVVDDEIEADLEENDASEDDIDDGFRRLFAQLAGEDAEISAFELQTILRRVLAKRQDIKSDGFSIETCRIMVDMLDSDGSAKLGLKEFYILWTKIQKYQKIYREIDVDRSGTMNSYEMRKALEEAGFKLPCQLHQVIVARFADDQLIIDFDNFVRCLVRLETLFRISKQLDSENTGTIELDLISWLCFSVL

[14] = molecular target: T5, Rac GTPase-activating protein 1 (Homo sapiens, UniProt Q9H0H5); assay: MgcRacGAP GTPase-activating activity inhibitors, confirmation, biochemical, ADP Hunter fluorescence, primary and confirmatory (AID 624330); type: functional
T5 sequence (Q9H0H5 whole entry): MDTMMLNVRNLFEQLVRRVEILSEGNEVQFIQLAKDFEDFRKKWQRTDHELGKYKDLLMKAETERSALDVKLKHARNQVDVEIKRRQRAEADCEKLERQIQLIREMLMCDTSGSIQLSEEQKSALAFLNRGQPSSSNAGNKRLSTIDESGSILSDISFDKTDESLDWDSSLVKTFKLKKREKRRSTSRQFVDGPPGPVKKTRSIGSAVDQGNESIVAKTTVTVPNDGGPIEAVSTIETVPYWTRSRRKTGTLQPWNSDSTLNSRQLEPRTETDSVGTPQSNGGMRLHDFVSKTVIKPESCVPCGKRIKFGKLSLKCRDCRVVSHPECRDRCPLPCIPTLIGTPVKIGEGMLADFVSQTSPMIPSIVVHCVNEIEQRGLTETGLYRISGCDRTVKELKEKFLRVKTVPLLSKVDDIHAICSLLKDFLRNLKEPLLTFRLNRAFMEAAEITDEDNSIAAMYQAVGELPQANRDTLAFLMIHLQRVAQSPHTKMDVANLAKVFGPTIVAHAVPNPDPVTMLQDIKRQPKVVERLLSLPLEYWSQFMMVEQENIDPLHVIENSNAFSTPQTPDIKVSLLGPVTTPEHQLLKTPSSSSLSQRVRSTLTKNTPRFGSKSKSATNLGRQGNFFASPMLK

[15] = C. albicans growth with fluconazole, confirmation, fluorescence, retest (AID 2467); type: functional, cell-based
[16] = NIH-3T3 fibroblast cytotoxicity, dose response, cytotoxicity control, cell-based, fluorescence, Alamar Blue, secondary assay (AID 2327); type: functional;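 also: NIH-3T3 mouse fibroblasts cultured with fluconazole at 8 µg/mL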
[17] = Luminescence Cell-Based Dose Response HTS to Identify Activators of Luciferase Translation or Activity in H4 […] Cells. [Related pubchem assays: 1829 (Project Summary), 1814 (Primary HTS)]; type: functional
H4 = assay: Luminescence Cell-Based Dose Response HTS to Identify Activators of 5'UTR Stem-Loop Driven Prion Protein mRNA Translation in H4 Neuroglioblastoma Cells. [Related pubchem assays: 1829 (Project Summary), 1814 (Primary HTS)]; type: functional; details: Homo sapiens
[18] = Luminescence Cell-Based Dose Confirmation HTS to Identify Activators of 5'UTR Stem-Loop Driven Alpha-Synuclein mRNA Translation in H4 Neuroglioblastoma Cells. [Related pubchem assays: 1829 (Project Summary), 1814 (Primary HTS)]; type: functional

T1 sequence (P11940 whole entry): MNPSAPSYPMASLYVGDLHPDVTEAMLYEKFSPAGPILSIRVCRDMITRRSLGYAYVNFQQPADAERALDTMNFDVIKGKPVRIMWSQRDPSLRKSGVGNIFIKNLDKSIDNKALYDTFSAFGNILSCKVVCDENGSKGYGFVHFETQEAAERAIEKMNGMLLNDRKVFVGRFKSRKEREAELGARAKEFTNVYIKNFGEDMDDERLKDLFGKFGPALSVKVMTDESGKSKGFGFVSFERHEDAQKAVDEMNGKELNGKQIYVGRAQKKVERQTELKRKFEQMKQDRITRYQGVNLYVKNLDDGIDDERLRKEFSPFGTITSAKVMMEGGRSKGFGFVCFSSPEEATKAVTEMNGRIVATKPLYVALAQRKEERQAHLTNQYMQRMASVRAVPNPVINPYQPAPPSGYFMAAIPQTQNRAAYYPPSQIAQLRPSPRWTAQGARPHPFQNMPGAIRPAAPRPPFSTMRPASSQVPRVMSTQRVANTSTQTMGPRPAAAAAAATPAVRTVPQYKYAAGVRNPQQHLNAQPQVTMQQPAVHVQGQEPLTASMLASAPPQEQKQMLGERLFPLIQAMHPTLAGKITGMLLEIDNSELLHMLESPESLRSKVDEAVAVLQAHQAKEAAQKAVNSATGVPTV
Sequence of FAD-linked sulfhydryl oxidase ALR (P55789 whole entry): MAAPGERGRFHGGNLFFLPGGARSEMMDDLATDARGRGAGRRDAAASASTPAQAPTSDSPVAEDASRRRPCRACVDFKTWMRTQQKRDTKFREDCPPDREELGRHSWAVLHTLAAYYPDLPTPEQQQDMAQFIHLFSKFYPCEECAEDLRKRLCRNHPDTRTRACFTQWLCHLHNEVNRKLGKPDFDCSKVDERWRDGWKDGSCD
Sequence of Luciferin 4-monooxygenase (P08659 whole entry): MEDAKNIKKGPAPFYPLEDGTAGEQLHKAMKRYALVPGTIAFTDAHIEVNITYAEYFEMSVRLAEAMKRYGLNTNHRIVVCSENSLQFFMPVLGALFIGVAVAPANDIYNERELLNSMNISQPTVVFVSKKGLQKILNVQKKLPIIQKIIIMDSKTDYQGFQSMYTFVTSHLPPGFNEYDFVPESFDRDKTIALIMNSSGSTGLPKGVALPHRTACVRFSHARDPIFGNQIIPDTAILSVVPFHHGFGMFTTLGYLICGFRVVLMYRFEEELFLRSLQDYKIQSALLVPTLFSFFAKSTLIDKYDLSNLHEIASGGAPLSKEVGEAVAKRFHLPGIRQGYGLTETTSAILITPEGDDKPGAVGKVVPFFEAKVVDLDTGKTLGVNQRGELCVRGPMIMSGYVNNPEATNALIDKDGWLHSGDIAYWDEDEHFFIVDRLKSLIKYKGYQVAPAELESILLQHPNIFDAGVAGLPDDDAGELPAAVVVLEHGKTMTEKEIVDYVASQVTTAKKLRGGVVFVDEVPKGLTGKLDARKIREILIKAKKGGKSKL

COc1cccc(-c2nnc(S)n2Cc2ccco2)c1OC
AC50 [1]: 3.65 µM (active)

O=C(NCc1nc2ccccc2[nH]1)c1c(F)c(F)c(F)c(F)c1F
EC50 (cells [2]): > 350 µM (not active) | EC50 (cells [3]): > 350 µM (not active)

CCCCc1nc2sc3c(O)ncnc3c2c2c1CCCC2
EC50 [4]: > 112 µM (not active) | EC50 [5]: > 112 µM (not active)

CCOc1cc(C2C3=C(CCCC3=O)N(CC(=O)O)C3=C2C(=O)CCC3)ccc1OC
IC50 [6]: > 66 µM (inactive) | IC50 [7]: > 66 µM (inactive)

Cc1cc(C)c(O)c(NC(=S)NC(=O)Cc2ccccc2)c1
IC50 [6]: > 66 µM (inactive) | IC50 [7]: > 66 µM (inactive)

Cc1c(N=C(S)NNC(=O)CCC(=O)O)c(=O)n(-c2ccccc2)n1C
EC50 [4]: > 112 µM (not active) | EC50 [5]: > 112 µM (not active)

Cn1c(=O)c2c(ncn2CC(=O)Nc2cccc(S(=O)(=O)Nc3ccccc3F)c2)n(C)c1=O
IC50 [6]: > 66 µM (inactive) | EC50 [8]: > 195 µM (not active) | IC50 [7]: > 66 µM (inactive)

Cc1ccc(CN2[C@@H](CC(C)C)COCCS2(=O)=O)cc1
EC50 (cells [2]): 72.7 µM (active) | EC50 (cells [3]): > 350 µM (not active)

COC(=O)c1cn(C)c2ccc(S(=O)(=O)N3CCCCC3)cc2c1=O
EC50 (cells [2]): > 350 µM (not active) | EC50 (cells [3]): > 350 µM (not active)

Cc1cccn2c(Nc3ccccc3)c(-c3ccccn3)nc12
AC50 (INS1): 5.84 µM (active)

O=C(Nc1ccc(-c2csc(Nc3cccc(C(F)(F)F)c3)n2)cc1)c1cc([N+](=O)[O-])cc(C(F)(F)F)c1
AC50 (INS1): 7.89 µM (active) | AC50 [9]: 1.4 µM (active)

Oc1[nH]c2ccc(Br)cc2c1N=NC(S)=NCC1CCCO1 (configuration not stated)
IC50 [10]: > 20 µM (inactive) | EC50 [11]: 2.17 µM (active) | EC50 [12]: > 60 µM (not active)

O=C(OCCCCN1C(=O)c2ccccc2C1=O)c1ccc(S(=O)(=O)N2CCCC2)cc1
EC50 [4]: > 112 µM (not active) | EC50 [5]: > 112 µM (not active)

N=C(S)C(c1ccccc1)c1ncc(C(F)(F)F)cc1Cl (configuration not stated)
IC50 [6]: > 66 µM (inactive) | IC50 [7]: > 66 µM (inactive)

CCCCN1C(=O)NC(=O)/C(=C(\C)NCCc2ccccc2)C1=O
IC50 [13]: 17.7 µM (not active)

CCCOC(=O)Nc1ccc(C(N)=O)cc1
EC50 [4]: > 112 µM (not active) | EC50 [5]: > 112 µM (not active)

O=C(CCCc1ccccc1)Nc1nnc(C(F)(F)F)s1
EC50 [4]: > 112 µM (not active) | EC50 [5]: > 112 µM (not active)

COc1cccc(-n2c(SCC(=O)OC(C)C)nnc2-c2cccnc2)c1
IC50 [13]: > 50 µM (not active)

CC(C)(C)n1nc2c3c(ccc2c1O)C(=O)c1ccccc1C3=O
AC50 (INS1): 2.98 µM (active)

O=C(CNCc1ccco1)Nc1ccc(N2CCCCCC2)cc1
AC50 [1]: 0.224 µM (active) | IC50 [14]: 84.4 µM (active)

COCCN(C(=O)CSc1nnc(-c2cccc(C)c2)n1C)c1c(N)n(Cc2ccccc2)c(=O)[nH]c1=O
EC50 [15]: > 38 µM (not active) | EC50 [16]: > 160 µM (inactive)

COc1ccccc1C(=O)Oc1ccccc1C(=O)Nc1ccccc1
EC50 (cells [2]): 16.1 µM (active) | EC50 (cells [3]): > 350 µM (not active)

CCCn1c(CCC(=O)O)ccc1-c1cccs1
AC50 [1]: 8.5 µM (active)

CCOc1ccc(NC(O)=C2C(=O)NC(=O)NC2=O)cc1
EC50 [4]: 9.93 µM (active) | EC50 [5]: 1.42 µM (active)

COc1ccccc1NS(=O)(=O)c1ccc(O)c(NC(S)=NCC2CCCO2)c1 (configuration not stated)
IC50 [6]: > 66 µM (inactive) | IC50 [7]: > 66 µM (inactive)

O=C1CC(SC(=NCc2ccc3c(c2)OCO3)Nc2ccccc2)C(=O)N1c1ccccc1 (configuration not stated)
IC50 [13]: > 50 µM (not active)

Cn1c(N)c(C(=O)COC(=O)c2ncc(Cl)c(Cl)c2Cl)c(=O)n(C)c1=O
IC50 [13]: 9.79 µM (active)

N=C(N)NC(=N)Nc1ccc(SC(F)(F)F)cc1
AC50 (INS1): 1.72 µM (active)

CC1(C)C2CCC1(C)C(OCC[N+](C)(C)CC(=O)OC1CCCCC1)C2 (configuration not stated)
EC50 [15]: 0.743 µM (active) | EC50 [16]: > 150 µM (inactive)

O=C(CSCc1ccco1)c1cccs1
EC50 [4]: > 112 µM (not active) | EC50 [5]: > 112 µM (not active)

CCCCNC(=O)c1cc(-c2ccc(F)cc2)on1
EC50 [17]: 24.3 µM (active) | EC50 (cells [2]): 45 µM (active) | EC50 (H4): 13.1 µM (active) | EC50 (cells [3]): 8.85 µM (active) | EC50 [18]: 11.9 µM (active)

Cc1ccc(Nc2c3c(nc4ccccc24)CCC3)cc1
AC50 (INS1): 8.95 µM (active) | EC50 (cells [2]): > 350 µM (not active) | EC50 (cells [3]): > 350 µM (not active)

Fc1ccc(F)c(C2=NN=C(NCC3CCCO3)SC2)c1 (configuration not stated)
IC50 [6]: > 66 µM (inactive) | IC50 [7]: > 66 µM (inactive)

CC(=O)c1cccc(NC(=O)CSC(=O)c2ccccc2)c1
EC50 (cells [2]): > 350 µM (not active) | EC50 (cells [3]): > 350 µM (not active)

O=C(c1ccco1)N1CCN(Cc2nc(-c3cccs3)no2)CC1
EC50 [4]: > 112 µM (not active) | EC50 [5]: > 112 µM (not active)

COc1ccc(COCC(O)CN2CCC(CN3C(=O)c4cccc5cccc(c45)C3=O)CC2)cc1OC (configuration not stated)
IC50 [10]: > 20 µM (inactive)

COc1ccc(Oc2nc(-c3ccccc3)ncc2S(=O)(=O)c2ccccc2)cc1
EC50 [4]: > 112 µM (not active) | EC50 [5]: > 112 µM (not active)

Sc1nncn1/N=C/c1cccc(Oc2ccccc2)c1
AC50 [1]: 2.09 µM (active)

COc1cccc(OC)c1C(=O)Nc1ccc(N2CCCCC2)cc1
AC50 [1]: 7.85 µM (active)

Nc1ccc2oc3ccc(N)cc3c(=O)c2c1
AC50 [1]: 1.07 µM (active)

C=C(C)CC1Nc2ccccc2NC1CC(=C)C (configuration not stated)
AC50 [1]: 5.56 µM (active)

CCOc1ccc(N2C(=O)CC(Sc3ccccc3C(=O)O)C2=O)c([N+](=O)[O-])c1 (configuration not stated)
IC50 [6]: > 66 µM (inactive) | IC50 [7]: > 66 µM (inactive)

COc1cccc(N(C(=O)c2snc(C(N)=O)c2N)C(C(=O)NCC2CCCO2)c2c[nH]c3ccccc23)c1 (configuration not stated)
IC50 [10]: > 20 µM (inactive)
